# Target: MAPK13 (Homo sapiens (Human), UniProt O15264)
# Conditions: read-out: MAPK13 IC50
# MAPK13, sequence (O15264 whole entry): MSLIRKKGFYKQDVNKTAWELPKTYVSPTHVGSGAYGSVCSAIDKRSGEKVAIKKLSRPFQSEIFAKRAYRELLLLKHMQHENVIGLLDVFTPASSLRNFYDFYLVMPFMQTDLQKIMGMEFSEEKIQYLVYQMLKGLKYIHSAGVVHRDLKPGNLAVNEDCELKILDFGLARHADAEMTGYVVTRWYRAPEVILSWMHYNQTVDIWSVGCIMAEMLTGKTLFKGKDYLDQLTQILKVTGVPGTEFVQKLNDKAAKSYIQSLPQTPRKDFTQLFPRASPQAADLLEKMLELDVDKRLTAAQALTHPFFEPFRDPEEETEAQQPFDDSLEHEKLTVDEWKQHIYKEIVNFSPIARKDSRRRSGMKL
row,Structure (SMILES),IC50
1,"CC(=O)Nc1cc(Oc2ccc(NC(=O)Nc3cc(C(C)(C)C)on3)c(F)c2)ccn1 [Compound 394, N-(4-{4-[3-(5-tert-Butyl-isoxazol-3-yl)-ureido]-3-fluoro-phenoxy}-pyridin-2-yl)-acetamide]",9 nM

# Same assay, conditions: read-out: MAPK13 inhibition
row,Structure (SMILES),IC50
1,"CCOC(=O)Nc1cc(CCc2cnc(NC(=O)Nc3cc(C(C)(C)C)nn3C)s2)ccn1 [Compound 335, [4-(2-{2-[3-(5-tert-Butyl-2-methyl-2H-pyrazol-3-yl)-ureido]-thiazol-5-yl}-ethyl)-pyridin-2-yl]-carbamic acid ethyl ester]",< 250 nM
2,"COCC(=O)Nc1cc(Oc2ccc(NC(=O)Nc3cc(C4(C)COC4)nn3-c3ccc(C)cc3)cc2)ccn1 [Compound 259, 2-Methoxy-N-[4-(4-{3-[5-(3-methyl-oxetan-3-yl)-2-p-tolyl-2H-pyrazol-3-yl]-ureido}-phenoxy)-pyridin-2-yl]-acetamide]",< 250 nM
3,"CC(C)(C)c1cc(NC(=O)Nc2ccc(CCc3ccnc(NC(=O)C4CC4)c3)cc2F)n(CC2CC2)n1 [Compound 372, Cyclopropanecarboxylic acid [4-(2-{4-[3-(5-tert-butyl-2-cyclopropylmethyl-2H-pyrazol-3-yl)-ureido]-3-fluoro-phenyl}-ethyl)-pyridin-2-yl]-amide]",> 1000 nM
4,"CC(=O)Nc1cc(CCc2ccc(NC(=O)Nc3cccc(C(C)(C)C)c3)c(F)c2)ccn1 [Compound 377, N-[4-(2-{4-[3-(3-tert-Butyl-phenyl)-ureido]-3-fluoro-phenyl}-ethyl)-pyridin-2-yl]-acetamide]",> 1000 nM
5,"COC(=O)Nc1cc(Oc2ccc(NC(=O)Nc3cc(C4(C)CSC4)nn3-c3ccc(C)cc3)cc2)ccn1 [Compound 262, [4-(4-{3-[5-(3-Methyl-thietan-3-yl)-2-p-tolyl-2H-pyrazol-3-yl]-ureido}-phenoxy)-pyridin-2-yl]-carbamic acid methyl ester]",< 250 nM
6,"CC(C)(C)c1cc(NC(=O)Nc2ncc(CCc3ccnc(NC(=O)C4CC4)c3)s2)no1 [Compound 369, Cyclopropanecarboxylic acid [4-(2-{2-[3-(5-tert-butyl-isoxazol-3-yl)-ureido]-thiazol-5-yl}-ethyl)-pyridin-2-yl]-amide]",< 250 nM
7,"CC(C)n1nc(C(C)(C)C)cc1NC(=O)Nc1ncc(CCc2ccncc2)s1 [Compound 389, 1-(5-tert-Butyl-2-isopropyl-2H-pyrazol-3-yl)-3-[5-(2-pyridin-4-yl-ethyl)-thiazol-2-yl]-urea]",> 1000 nM
8,"CC(C)(C)c1cc(NC(=O)Nc2ncc(CCc3ccnc(NC(=O)C4CC4)c3)s2)n(CC2CC2)n1 [Compound 334, Cyclopropanecarboxylic acid [4-(2-{2-[3-(5-tert-butyl-2-cyclopropylmethyl-2H-pyrazol-3-yl)-ureido]-thiazol-5-yl}-ethyl)-pyridin-2-yl]-amide]",< 250 nM
9,"CC(C)n1nc(C(C)(C)C)cc1NC(=O)Nc1ccc(CCc2ccnc(NC(=O)C3CC3)c2)cc1F [Compound 375, Cyclopropanecarboxylic acid [4-(2-{4-[3-(5-tert-butyl-2-isopropyl-2H-pyrazol-3-yl)-ureido]-3-fluoro-phenyl}-ethyl)-pyridin-2-yl]-amide]",> 1000 nM
10,"Cn1nc(C(C)(C)C)cc1NC(=O)Nc1ncc(CCc2ccnc(NC(=O)C3CCC3)c2)s1 [Compound 353, Cyclobutanecarboxylic acid [4-(2-{2-[3-(5-tert-butyl-2-methyl-2H-pyrazol-3-yl)-ureido]-thiazol-5-yl}-ethyl)-pyridin-2-yl]-amide]",< 250 nM
11,"CCNC(=O)Nc1cc(CCc2cnc(NC(=O)Nc3cc(C(C)(C)C)nn3CC3CC3)s2)ccn1 [Compound 340, 1-[4-(2-{2-[3-(5-tert-Butyl-2-cyclopropylmethyl-2H-pyrazol-3-yl)-uredo]-thiazol-5-yl}-ethyl)-pyridin-2-yl]-3-ethyl-urea]",< 250 nM
12,"CC(C)(C)c1cc(NC(=O)Nc2ncc(CCc3ccnc(NC(=O)C4CC4)c3)s2)[nH]n1 [Compound 368, Cyclopropanecarboxylic acid [4-(2-{2-[3-(5-tert-butyl-2H-pyrazol-3-yl)-ureido]-thiazol-5-yl}-ethyl)-pyridin-2-yl]-amide]",< 250 nM
13,"CC(=O)Nc1cc(CCc2ccc(NC(=O)Nc3cc(C(C)(C)C)no3)c(F)c2)ccn1 [Compound 359, N-[4-(2-{4-[3-(3-tert-Butyl-isoxazol-5-yl)-ureido]-3-fluoro-phenyl}-ethyl)-pyridin-2-yl]-acetamide]",> 1000 nM
14,"CC(C)(C)c1cccc(NC(=O)Nc2ccc(CCc3ccnc(NC(=O)C4CC4)c3)cc2F)c1 [Compound 376, Cyclopropancearboxylic acid [4-(2-{4-[3-(3-tert-butyl-phenyl)-ureido]-3-fluoro-phenyl}-ethyl)-pyridin-2-yl]-amide]",> 1000 nM
15,"CC(=O)Nc1cc(Oc2ccc(NC(=O)Nc3cc(C(C)(C)C)on3)c(F)c2)ccn1 [Compound 394, N-(4-{4-[3-(5-tert-Butyl-isoxazol-3-yl)-ureido]-3-fluoro-phenoxy}-pyridin-2-yl)-acetamide]",< 250 nM
16,"CC(=O)Nc1cc(CCc2cnc(NC(=O)Nc3cc(C(C)(C)C)on3)s2)ccn1 [Compound 366, N-[4-(2-{2-[3-(5-tert-Butyl-isoxazol-3-yl)-ureido]-thiazol-5-yl}-ethyl)-pyridin-2-yl]-acetamide]",< 250 nM
17,"CC(C)(C)c1ccc(Cl)c(NC(=O)Nc2ccc(Oc3ccnc(N)c3)cc2F)c1 [Compound 428, 1-[4-(2-Amino-pyridin-4-yloxy)-2-fluoro-phenyl]-3-(5-tert-butyl-2-chloro-phenyl)-urea]",> 1000 nM
18,"CC(=O)Nc1cc(CCc2ccc(NC(=O)Nc3cc(C(F)(F)F)ccc3F)c(F)c2)ccn1 [Compound 360, N-[4-(2-{3-Fluoro-4-[3-(2-fluoro-5-trifluoromethyl-phenyl)-ureido]-phenyl}-ethyl)-pyridin-2-yl]-acetamide]",> 1000 nM
19,"CCOC(=O)Nc1cc(CCc2cnc(NC(=O)Nc3cc(C(C)(C)C)on3)s2)ccn1 [Compound 364, [4-(2-{2-[3-(5-tert-Butyl-isoxazol-3-yl)-ureido]-thiazol-5-yl}-ethyl)-pyridin-2-yl]-carbamic acid ethyl ester]",< 250 nM
20,"CC(C)(C)c1cc(NC(=O)Nc2ccc(CCc3ccnc(NC(=O)C4CC4)c3)cc2F)on1 [Compound 374, Cycloproprinecarboxylic acid [4-(2-{4-[3-(3-tert-butyl-isoxazol-5-yl)-ureido]-3-fluoro-phenyl}-ethyl)-pyridin-2-yl]-amide]",> 1000 nM
21,"CC(=O)Nc1cc(COc2ccc(NC(=O)Nc3cc(C(C)(C)C)nn3-c3ccc(C)cc3)c(F)c2)ccn1 [Compound 402, N-(4-{4-[3-(5-tert-Butyl-2-p-tolyl-2H-pyrazol-3-yl)-ureido]-3-fluoro-phenoxymethyl}-pyridin-2-yl)-acetamide]",< 250 nM
22,"CC(=O)Nc1cc(CCc2ccc(NC(=O)Nc3cc(C(C)(C)C)nn3C)c(F)c2)ccn1 [Compound 361, N-[4-(2-{4-[3-(5-tert-Butyl-2-methyl-2H-pyrazol-3-yl)-ureido]-3-fluoro-phenyl}-ethyl)-pyridin-2-yl]-acetamide]",> 1000 nM
23,"CCOC(=O)Nc1cc(CCc2cnc(NC(=O)Nc3cc(C(F)(F)F)ccc3F)s2)ccn1 [Compound 357, [4-(2-{2-[3-(2-Fluoro-5-trifluoromethyl-phenyl)-ureido]-thiazol-5yl}-ethyl)-pyridin-2-yl]-carbamic acid ethyl ester]",> 1000 nM
24,"CC(C)(C)c1cc(NC(=O)Nc2ccc(CCc3ccnc(NC(=O)C4CC4)c3)cc2F)no1 [Compound 378, Cyclopropanecarboxylic acid [4-(2-{4-[3-(5-tert-butyl-isoxazol-3-yl)-ureido]-3-fluoro-phenyl}-ethyl)-pyridin-2-yl]-amide]",> 1000 nM
